Twelve molecules from patent publication US20260144788A1, “COMPOUND FOR SHP2 PROTEIN DEGRADATION AND MEDICAL USES THEREOF” (UBIX THERAPEUTICS, INC., priority 2022, published 2026) can be followed below.

The target of the assay is T1, SHP2 protein (Homo sapiens, UniProt Q06124).
T1 sequence (Q06124 1-593): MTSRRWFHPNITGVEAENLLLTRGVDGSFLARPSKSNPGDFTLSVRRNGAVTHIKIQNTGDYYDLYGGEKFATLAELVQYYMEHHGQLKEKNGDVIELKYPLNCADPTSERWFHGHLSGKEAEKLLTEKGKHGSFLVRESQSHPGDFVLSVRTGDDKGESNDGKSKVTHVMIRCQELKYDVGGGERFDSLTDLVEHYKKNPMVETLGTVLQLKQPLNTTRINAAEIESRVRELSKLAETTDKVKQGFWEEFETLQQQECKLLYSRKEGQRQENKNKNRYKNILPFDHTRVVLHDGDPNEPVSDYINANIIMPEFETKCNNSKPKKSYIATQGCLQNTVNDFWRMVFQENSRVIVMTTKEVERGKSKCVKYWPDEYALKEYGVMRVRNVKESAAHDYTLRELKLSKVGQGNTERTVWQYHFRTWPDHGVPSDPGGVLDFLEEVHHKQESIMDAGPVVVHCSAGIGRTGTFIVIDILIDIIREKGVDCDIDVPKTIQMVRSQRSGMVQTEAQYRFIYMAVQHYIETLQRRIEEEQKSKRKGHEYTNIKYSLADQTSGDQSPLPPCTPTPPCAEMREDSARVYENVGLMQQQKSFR
Kind of assay: Measurement of SHP2 protein degradation in MV-4-11 cells (western blotting). It counts as cell-based. More on the design: endogenous in cells. The following applies: harvested after 24 hours. In short, it runs like this:
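MV-4-11 cells in IMDM/5% FBS were exposed to compound at final 0.01, 0.1, 1 μM or 0.001, 0.01, 0.1 μM for 24 h, DMSO as negative control. BCA-normalised lysates were immunoblotted for SHP2 with GAPDH as loading control, read on LI-COR Odyssey.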

Each structure is given as a SMILES string.

Regarding `CC(=O)N[C@H](C(=O)N1C[C@H](O)C[C@H]1C(=O)NCc1ccc(-c2scnc2C)cc1O[C@H]1CC[C@H](C(=O)N2CC(Nc3cccc(Sc4cnc(N5CCC(C)(CN)CC5)cn4)c3Cl)C2)CC1)C(C)(C)C` [Example 27, (2S,4R)-1-((S)-2-acetamido-3,3-dimethylbutanoyl)-N-(2-(((1R,4S)-4-(3-((3-((5-(4-(aminomethyl)-4-methylpiperidin-1-yl)pyrazin-2-yl)thio)-2-chlorophenyl)amino)azetidine-1-carbonyl)cyclohexyl)oxy)-4-(4-methylthiazol-5-yl)benzyl)-4-hydroxypyrrolidine-2-carboxamide], the SHP2% degradation stood at 95.8% (0.01 μM) and 99.9% (0.1 μM).

On to `CC(=O)N[C@H](C(=O)N1C[C@H](O)C[C@H]1C(=O)NCc1ccc(-c2scnc2C)cc1O[C@H]1CC[C@H](C(=O)N2CC(Nc3cccc(Sc4cnc(N5CCC6(CC5)CO[C@@H](C)[C@H]6N)cn4)c3Cl)C2)CC1)C(C)(C)C` [Example 29, (2S,4R)-1-((S)-2-acetamido-3,3-dimethylbutanoyl)-N-(2-(((1r,4S)-4-(3-((3-((5-((3S,4S)-4-amino-3-methyl-2-oxa-8-azaspiro[4.5]decan-8-yl)pyrazin-2-yl)thio)-2-chlorophenyl)amino)azetidine-1-carbonyl)cyclohexyl)oxy)-4-(4-methylthiazol-5-yl)benzyl)-4-hydroxypyrrolidine-2-carboxamide], for which the SHP2% degradation is, setting by setting: (0.01 μM) 97.2%; (0.1 μM) 99.9%.

Take `CC(=O)N[C@H](C(=O)N1C[C@H](O)C[C@H]1C(=O)NCc1ccc(-c2scnc2C)cc1O[C@H]1CC[C@H](C(=O)N2CC(Nc3cccc(Sc4cnc(N5CCC6(CC5)Cc5ccccc5[C@H]6N)cn4)c3Cl)C2)CC1)C(C)(C)C` [Example 30, (2S,4R)-1-((S)-2-acetamido-3,3-dimethylbutanoyl)-N-(2-(((1R,4S)-4-(3-((3-((5-((S)-1-amino-1,3-dihydrospiro[indene-2,4′-piperidin]-1′-yl)pyrazin-2-yl)thio)-2-chlorophenyl)amino)azetidine-1-carbonyl)cyclohexyl)oxy)-4-(4-methylthiazol-5-yl)benzyl)-4-hydroxypyrrolidine-2-carboxamide]: the SHP2% degradation worked out at 86.1% (0.01 μM) and 99.9% (0.1 μM).

As to `CC(=O)N[C@H](C(=O)N1C[C@H](O)C[C@H]1C(=O)NCc1ccc(-c2scnc2C)cc1O[C@H]1CC[C@H](C(=O)N2CC(Nc3nccc(Sc4cnc(N5CCC(C)(CN)CC5)cn4)c3Cl)C2)CC1)C(C)(C)C` [Example 38, (2S,4R)-1-((S)-2-acetamido-3,3-dimethylbutanoyl)-N-(2-(((1R,4S)-4-(3-((4-((5-(4-(aminomethyl)-4-methylpiperidin-1-yl)pyrazin-2-yl)thio)-3-chloropyridin-2-yl)amino)azetidine-1-carbonyl)cyclohexyl)oxy)-4-(4-methylthiazol-5-yl)benzyl)-4-hydroxypyrrolidine-2-carboxamide], the SHP2% degradation is recorded as 97.7% (0.01 μM) and 99.5% (0.1 μM).

With `CC(=O)N[C@H](C(=O)N1C[C@H](O)C[C@H]1C(=O)NCc1ccc(-c2scnc2C)cc1O[C@H]1CC[C@H](C(=O)N2CCC(Nc3nccc(Sc4cnc(N5CCC(C)(CN)CC5)cn4)c3Cl)CC2)CC1)C(C)(C)C` [Example 41, (2S,4R)-1-((S)-2-acetamido-3,3-dimethylbutanoyl)-N-(2-(((1R,4S)-4-(4-((4-((5-(4-(aminomethyl)-4-methylpiperidin-1-yl)pyrazin-2-yl)thio)-3-chloropyridin-2-yl)amino)piperidine-1-carbonyl)cyclohexyl)oxy)-4-(4-methylthiazol-5-yl)benzyl)-4-hydroxypyrrolidine-2-carboxamide], the SHP2% degradation by setting is: (0.01 μM) 98.2%; (0.1 μM) 99. %.

With `Cc1ncsc1-c1ccc(CNC(=O)[C@@H]2C[C@@H](O)CN2C(=O)[C@@H](NC(=O)C2(F)CC2)C(C)(C)C)c(OCCN2CCC(C(=O)N3CC(Nc4cccc(Sc5cnc(N6CCC(C)(CN)CC6)cn5)c4Cl)C3)CC2)c1` [Example 50, (2S,4R)—N-(2-(2-(4-(3-((3-((5-(4-(aminomethyl)-4-methylpiperidin-1-yl)pyrazin-2-yl)thio)-2-chlorophenyl)amino)azetidine-1-carbonyl)piperidin-1-yl)ethoxy)-4-(4-methylthiazol-5-yl)benzyl)-1-((S)-2-(1-fluorocyclopropane-1-carboxamido)-3,3-dimethylbutanoyl)-4-hydroxypyrrolidine-2-carboxamide], the SHP2% degradation runs as follows: (0.01 μM) 67.3%; (0.1 μM) 97.6%.

For the molecule `Cc1ncsc1-c1ccc(CNC(=O)[C@@H]2C[C@@H](O)CN2C(=O)[C@@H](NC(=O)C2(F)CC2)C(C)(C)C)c(OCCN2CCC(C(=O)N3CCC(Nc4cccc(Sc5cnc(N6CCC(C)(CN)CC6)cn5)c4Cl)CC3)CC2)c1` [Example 51, (2S,4R)—N-(2-(2-(4-(4-((3-((5-(4-(aminomethyl)-4-methylpiperidin-1-yl)pyrazin-2-yl)thio)-2-chlorophenyl)amino)piperidine-1-carbonyl)piperidin-1-yl)ethoxy)-4-(4-methylthiazol-5-yl)benzyl)-1-((S)-2-(1-fluorocyclopropane-1-carboxamido)-3,3-dimethylbutanoyl)-4-hydroxypyrrolidine-2-carboxamide], the SHP2% degradation (0.01 μM) is listed as 32.9% and the SHP2% degradation (0.1 μM) is given as 92.6%.

`Cc1ncsc1-c1ccc(CNC(=O)[C@@H]2C[C@@H](O)CN2C(=O)[C@@H](NC(=O)C2(F)CC2)C(C)(C)C)c(OCCN2CCC(C(=O)N3CCN(c4nccc(Sc5cnc(N6CCC(C)(CN)CC6)cn5)c4Cl)CC3)CC2)c1` [Example 52, (2S,4R)—N-(2-(2-(4-(4-(4-((5-(4-(aminomethyl)-4-methylpiperidin-1-yl)pyrazin-2-yl)thio)-3-chloropyridin-2-yl)piperazine-1-carbonyl)piperidin-1-yl)ethoxy)-4-(4-methylthiazol-5-yl)benzyl)-1-((S)-2-(1-fluorocyclopropane-1-carboxamido)-3,3-dimethylbutanoyl)-4-hydroxypyrrolidine-2-carboxamide]: the SHP2% degradation stood at 20.5% (0.01 μM) and 91.9% (0.1 μM).

`Cc1ncsc1-c1ccc(CNC(=O)[C@@H]2C[C@@H](O)CN2C(=O)[C@@H](NC(=O)C2(F)CC2)C(C)(C)C)c(OCCN2CCN(C(=O)C3CN(c4nccc(Sc5cnc(N6CCC(C)(CN)CC6)cn5)c4Cl)C3)CC2)c1` [Example 53, (2S,4R)—N-(2-(2-(4-(1-(4-((5-(4-(aminomethyl)-4-methylpiperidin-1-yl)pyrazin-2-yl)thio)-3-chloropyridin-2-yl)azetidine-3-carbonyl)piperazin-1-yl)ethoxy)-4-(4-methylthiazol-5-yl)benzyl)-1-((S)-2-(1-fluorocyclopropane-1-carboxamido)-3,3-dimethylbutanoyl)-4-hydroxypyrrolidine-2-carboxamide]: the SHP2% degradation reads like this: (0.01 μM) 70.4%; (0.1 μM) 99.4%.

On to `Cc1ncsc1-c1ccc(CNC(=O)[C@@H]2C[C@@H](O)CN2C(=O)[C@@H](NC(=O)C2(F)CC2)C(C)(C)C)c(OCCN2CCN(C(=O)C3CCN(c4nccc(Sc5cnc(N6CCC(C)(CN)CC6)cn5)c4Cl)CC3)CC2)c1` [Example 54, (2S,4R)—N-(2-(2-(4-(1-(4-((5-(4-(aminomethyl)-4-methylpiperidin-1-yl)pyrazin-2-yl)thio)-3-chloropyridin-2-yl)piperidine-4-carbonyl)piperazin-1-yl)ethoxy)-4-(4-methylthiazol-5-yl)benzyl)-1-((S)-2-(1-fluorocyclopropane-1-carboxamido)-3,3-dimethylbutanoyl)-4-hydroxypyrrolidine-2-carboxamide], for which the SHP2% degradation runs as follows: (0.01 μM) 69.4%; (0.1 μM) 99.3%.

With `Cc1ncsc1-c1ccc(CNC(=O)[C@@H]2C[C@@H](O)CN2C(=O)[C@@H](NC(=O)C2(F)CC2)C(C)(C)C)c(OCCC2CCN(C(=O)C3CN(c4nccc(Sc5cnc(N6CCC(C)(CN)CC6)cn5)c4Cl)C3)CC2)c1` [Example 55, (2S,4R)—N-(2-(2-(1-(1-(4-((5-(4-(aminomethyl)-4-methylpiperidin-1-yl)pyrazin-2-yl)thio)-3-chloropyridin-2-yl)azetidine-3-carbonyl)piperidin-4-yl)ethoxy)-4-(4-methylthiazol-5-yl)benzyl)-1-((S)-2-(1-fluorocyclopropane-1-carboxamido)-3,3-dimethylbutanoyl)-4-hydroxypyrrolidine-2-carboxamide], the SHP2% degradation was found to be 27.5% (0.01 μM) and 95.0% (0.1 μM).

As to `Cc1ncsc1-c1ccc(CNC(=O)[C@@H]2C[C@@H](O)CN2C(=O)[C@@H](NC(=O)C2(F)CC2)C(C)(C)C)c(OCCC2CCN(C(=O)C3CCN(c4nccc(Sc5cnc(N6CCC(C)(CN)CC6)cn5)c4Cl)CC3)CC2)c1` [Example 56, (2S,4R)—N-(2-(2-(1-(1-(4-((5-(4-(aminomethyl)-4-methylpiperidin-1-yl)pyrazin-2-yl)thio)-3-chloropyridin-2-yl)piperidine-4-carbonyl)piperidin-4-yl)ethoxy)-4-(4-methylthiazol-5-yl)benzyl)-1-((S)-2-(1-fluorocyclopropane-1-carboxamido)-3,3-dimethylbutanoyl)-4-hydroxypyrrolidine-2-carboxamide], the SHP2% degradation was found to be 55.8% (0.01 μM) and 98.6% (0.1 μM).
